Results published in PMC12079444, “Antagonist Targeting the Species‐Specific Fatty Acid Dehydrogenase/Isomerase FabX for Anti‐H. pylori Infection” (Advanced Science, 2025).
Values after ≈ are worked out from the molar mass of the structure shown.

Assays:
FabX [1] = molecular target: T1, FabX (Helicobacter pylori, UniProt O25465); test: isothermal titration calorimetry; type: binding
T1 construct: gene HP_0773; recombinant from pQE2 vector in E. coli BL21(DE3) Rosetta, Ni-NTA, HiTrap-SP, Superdex75; FMN and [4Fe-4S] cofactors
T1 sequence (O25465 1-363): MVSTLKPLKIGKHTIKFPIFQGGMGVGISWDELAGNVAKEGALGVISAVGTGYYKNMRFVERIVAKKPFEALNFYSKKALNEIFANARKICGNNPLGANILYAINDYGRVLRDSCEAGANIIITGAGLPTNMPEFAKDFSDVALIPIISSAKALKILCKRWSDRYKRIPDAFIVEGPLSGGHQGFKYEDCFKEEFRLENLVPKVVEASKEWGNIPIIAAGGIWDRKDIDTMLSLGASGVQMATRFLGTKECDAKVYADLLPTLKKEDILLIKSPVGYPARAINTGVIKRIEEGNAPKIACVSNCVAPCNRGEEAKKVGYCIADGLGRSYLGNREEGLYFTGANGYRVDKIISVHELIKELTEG

FabX [2] = molecular target: T1, FabX; test: FabX-FabI coupled assay, NADH absorbance […] nm; type: biochemical
[3] = test system: T2, Helicobacter pylori BHKS 210; test: microbe, parasite or virus in culture; conditions: BHKS210, read-out: MIC
T2 construct: BHKS210 (NSH57/empty vector pTM117) wild-type NSH57 with empty vector
Description: (§1) The sensitivity of H. pylori strains to various compounds was assessed by determining the MIC and evaluating the growth of the strains on the drug‐containing agar media. The MIC was measured using the broth microdilution assay as described previously.^[ [27] ^] Twofold serial dilutions of the test compounds were prepared using BHI broth supplemented with 10% FCS in 96‐well microtiter plates. Diluted H. pylori cultures, adjusted to a final concentration of 5 × 10^5 CFU mL^−1, were then added to each well. The cultures were incubated for 48–72 h in a microaerobic environment at 37 °C. The MIC was determined by visual inspection. H. pylori strains used in this study were cultured on brain heart infusion (BHI) broth (Oxoid, UK) or Columbia blood agar medium (Oxoid, UK) supplemented with 10% fetal calf serum (FCS). The cultures were incubated at 37 °C for 48–72 h under microaerobic environments in a double‐gas CO2 incubator (Binder, Germany). The wild‐type strains G27 and NSH57 used in this study were kindly provided by Prof. Nina R. Salama from the Fred Hutchinson Cancer Research Center (USA). Three clinical H. pylori strains (BYES129, BY924, and JIGC0009) were isolated from biopsy samples from three patients with gastritis or gastric cancer using standard protocols. Strains BHKS551 (NSH57 IR0203::fabA ΔfabX) and BHKS568 (NSH57 IR0203::fabX ΔfabX) were described previously.^[ [19] ^] The following 15 reference strains of different species were also used: Escherichia coli ATCC 25922, Klebsiella pneumoniae ATCC 35657, Pseudomonas aeruginosa PAO1, Salmonella enterica serovar Typhimurium ATCC 14028, Shigella dysenteriae Sd197, Acinetobacter baumannii ATCC 19606, Proteus mirabilis ATCC 29906, Enterobacter cloacae ATCC 13047, Stenotrophomonas maltophilia ATCC 51331, Bacillus subtilis 168, Enterococcus faecium ATCC 19434, Staphylococcus aureus ATCC 25923, Staphylococcus haemolyticus ATCC 29970, Listeria monocytogenes EGDe, and Morganella morganii ATCC 25830. These non‐Helicobacter bacterial strains were cultured as described previously.^[ [25] ^] We evaluated the antibacterial activities of selected compounds (IC 50 < 1 × 10^−6 M) against several H. pylori strains (Table S3∖, Supporting Information), particularly against strains BHKS551 and BHKS211 (the FabX overexpressed strain, hereinafter referred to as FabX^OE) to validate the on‐target effect in vivo. Note that FabX is overproduced 3.32‐fold in strain BHKS211 compared to the control strain BHKS210 carrying the empty vector (Figure S3, Supporting Information). […] This could be due to the fact that the carboxyl group of 8j readily deprotonates and acquires negative charge at physiological pH, which reduces its lipophilicity and prevents it from permeating the bacterial cell membrane. To address this issue, we employed a prodrug strategy and synthesized esters from 8j by attaching it to lipophilic alcohols (8p‐8u) or a lipophilic cation 6‐hydroxyhexyltriphenylphosphonium bromide (8v) (Figure 3). […] Compounds 8p‐8s were synthesized as shown in Scheme 1, while compounds 8t‐8v were synthesized as described in Scheme 3 . 8q was hydrolyzed with NaOH to yield 8j, which was subsequently reacted with various alcohols by Steglich esterification to produce compounds 8t‐8v.

[4] = test system: T3, Helicobacter pylori BHKS 568; test: microbe, parasite or virus in culture; conditions: BHKS568, read-out: MIC
T3 construct: BHKS568 (NSH57 IR0203::fabX ΔfabX) native fabX relocated to IR0203
Description: as §1

[5] = test system: T4, Helicobacter pylori Hp129; test: microbe, parasite or virus in culture; conditions: HP129, read-out: MIC
T4 construct: Hp129
Description: as §1

Helicobacter pylori G27 = test system: T5, Helicobacter pylori G27; test: microbe, parasite or virus in culture; conditions: G27, read-out: MIC
T5 construct: G27
Description: as §1

FabX [6] = molecular target: T1, FabX; test: biochemical; design: FabX inhibition in multienzymatic cascade coupled to FabI, NADH consumption read-out; conditions: read-out: % inhibition
Excerpt: To discover small molecule inhibitors targeting FabX, we performed protein thermal shift assay (PTSA) based high‐throughput screening against an in‐house chemical library of 11000 small molecule compounds, and established a multienzymatic cascade reaction system by incorporating the enoyl acyl carrier protein reductase FabI from H. pylori into the hit validation system, where FabI catalyzes the reduction of FabX catalytic product enoyl‐ACP in the fourth step of the elongation cycle, accompanying the elimination of NADH (Figure 2A,B). […] The subcloning, expression, and purification of FabX, FabI, and ACP from H. pylori, FabK from S. pneumoniae, and FabA from E. coli were described previously.^[ [19] ^] Briefly, fabX, fabI, fabK, and fabA genes were subcloned to pQE2 vector, while the Acp gene was subcloned to pET32a vector, respectively. The proteins were expressed in BL21(DE3) Rosetta cells, purified by using Ni‐NTA affinity column, HiTrap‐SP column, GE HiLoad 16/600 Superdex75 prep grade gel‐filtration column. The peaks from the gel‐filtration column were further pooled, concentrated, and the final concentration of the proteins was quantified by the Bradford reagent purchased from Bio‐Rad.

FabX [7] = molecular target: T1, FabX; test: FabX-FabI coupled assay, NADH absorbance […] nm; type: biochemical; conditions: read-out: FabX enzymatic activity / 10 × 10^-6 M [%]
FabX [8] = molecular target: T1, FabX; test: X-ray crystal structure, […] Å; type: binding; conditions: bound cofactor in the complex with FBX-1991

## O=C(O)c1cccc(NS(=O)(=O)c2cccnc2Nc2ccc(Cl)cc2Cl)c1 [8j, FBX-1872]
FabX [1]
  Kd: 0.435 ± 0.046 µM
FabX [2]
  IC50: 0.437 ± 0.042 µM
[3]
  MIC: > 128 µg/mL
[4]
  MIC: > 64 µg/mL
[5]
  MIC: > 64 µg/mL
Helicobacter pylori G27
  MIC: > 64 µg/mL
FabX [6]
  inhibition at 1 µM: 65%
  inhibition at 10 µM: 100%

## CC(C)(C)OC(=O)c1cccc(NS(=O)(=O)c2cccnc2Nc2ccc(Cl)cc2Cl)c1 [8s]
FabX [7]
  inhibition at 10 µM: 10%
[3]
  MIC: 32 µg/mL (≈ 64.7 µM)
[4]
  MIC: 32 µg/mL (≈ 64.7 µM)
[5]
  MIC: 32 µg/mL (≈ 64.7 µM)
Helicobacter pylori G27
  MIC: 64 µg/mL (≈ 129 µM)

## Cc1cc2nc3c(=O)[nH]c(=O)nc-3n(C[C@H](O)[C@H](O)[C@H](O)COP(=O)(O)O)c2cc1C [FMN]
FabX [8]
  X-ray crystal structure, 2.00 Å: binds in the region between the FMN cofactor and the catalytic tunnel of FabX
